Measured values as given in ChEMBL document CHEMBL3885861, “Open TG-GATES”.

Species: Rattus norvegicus
Assay: Open TG-GATES - Regimen: Daily Repeat
Format: toxicity, organism-based, Sprague-Dawley
Set-up: regimen Daily Repeat, gender Male, age 6 weeks
Conditions: in vivo, po, route gavage; for APTT / Bas / Eos / Fbg / Hb / Ht / Lym / MCHC / MCV / Mono / Neu / PT / Plat / RBC / Ret / WBC: tissue Blood; for KIDNEY_L / KIDNEY_R / KIDNEY_TOTAL: tissue Kidney; for LIVER: tissue Liver; for ALP / ALT / AST / CRE / DBIL / GLC / IP / K / LDH / Na / PL / RALB / TBIL / TC / TG / TP / gamma-GTP: tissue Plasma
[1] = 0 mg/kg, 72 h, dose level Control, time 3 day
[2] = 0 mg/kg, […], dose level Control, time 7 day
[3] = 0 mg/kg, […], dose level Control, time 14 day
[4] = 0 mg/kg, […], dose level Control, time 28 day
[5] = 100 mg/kg, 72 h, dose level Low, time 3 day
[6] = 100 mg/kg, […], dose level Low, time 7 day
[7] = 100 mg/kg, […], dose level Low, time 14 day
[8] = 100 mg/kg, […], dose level Low, time 28 day

C#C[C@]1(O)CC[C@H]2[C@@H]3CCC4=Cc5oncc5C[C@]4(C)[C@H]3CC[C@@]21C [DANAZOL]
TERMINAL_BW [1]: 236.4 g | APTT [1]: 23.9 s | Bas [1]: 0% | Eos [1]: 0.8% | Fbg [1]: 304.4 mg/dL | Hb [1]: 13.4 g/dL | Ht [1]: 40.8% | Lym [1]: 77.4% | MCHC [1]: 32.7% | MCV [1]: 63.8 fL | Mono [1]: 3% | Neu [1]: 17.2% | PT [1]: 15.5 s | Plat [1]: 120.7 x10_4/uL | RBC [1]: 639.8 x10_4/ul | Ret [1]: 6.7% | WBC [1]: 80.8 x10_2/uL | KIDNEY_L [1]: 1 g | KIDNEY_R [1]: 1 g | KIDNEY_TOTAL [1]: 2 g | LIVER [1]: 11.6 g | ALP [1]: 1436.8 IU/L | ALT [1]: 45.8 IU/L | AST [1]: 72.4 IU/L | CRE [1]: 0.2 mg/dL | DBIL [1]: 0 mg/dL | GLC [1]: 197.6 mg/dL | IP [1]: 7.8 mg/dL | K [1]: 4.2 meq/L | LDH [1]: 190 IU/L | Na [1]: 142.6 meq/L | PL [1]: 140 mg/dL | RALB [1]: 3.1 g/dL | TBIL [1]: 0.008 mg/dL | TC [1]: 72.2 mg/dL | TG [1]: 95.6 mg/dL | TP [1]: 5.5 g/dL | gamma-GTP [1]: 1.6 IU/L | TERMINAL_BW [2]: 266.9 g | TERMINAL_BW [3]: 328.6 g | TERMINAL_BW [4]: 402.2 g | APTT [2]: 22.8 s | Bas [2]: 0% | Eos [2]: 1% | Fbg [2]: 302.8 mg/dL | Hb [2]: 13.8 g/dL | Ht [2]: 40.8% | Lym [2]: 76.8% | MCHC [2]: 33.9% | MCV [2]: 60.1 fL | Mono [2]: 3% | Neu [2]: 18.8% | PT [2]: 15.2 s | Plat [2]: 116.5 x10_4/uL | RBC [2]: 678.8 x10_4/ul | Ret [2]: 5.9% | WBC [2]: 114.8 x10_2/uL | APTT [3]: 24.6 s | Bas [3]: 0% | Eos [3]: 0.8% | Fbg [3]: 325.6 mg/dL | Hb [3]: 14.5 g/dL | Ht [3]: 41.5% | Lym [3]: 83% | MCHC [3]: 34.9% | MCV [3]: 60.6 fL | Mono [3]: 2% | Neu [3]: 13.4% | PT [3]: 15.3 s | Plat [3]: 124.1 x10_4/uL | RBC [3]: 685.8 x10_4/ul | Ret [3]: 3.8% | WBC [3]: 122.1 x10_2/uL | APTT [4]: 23.5 s | Bas [4]: 0% | Eos [4]: 1% | Fbg [4]: 293 mg/dL | Hb [4]: 14.6 g/dL | Ht [4]: 42.9% | Lym [4]: 82.8% | MCHC [4]: 34.1% | MCV [4]: 57.9 fL | Mono [4]: 1.8% | Neu [4]: 13.6% | PT [4]: 15.9 s | Plat [4]: 101.9 x10_4/uL | RBC [4]: 740 x10_4/ul | Ret [4]: 2.1% | WBC [4]: 119.8 x10_2/uL | KIDNEY_L [2]: 1.1 g | KIDNEY_R [2]: 1.1 g | KIDNEY_TOTAL [2]: 2.3 g | KIDNEY_L [3]: 1.3 g | KIDNEY_R [3]: 1.4 g | KIDNEY_TOTAL [3]: 2.7 g | KIDNEY_L [4]: 1.4 g | KIDNEY_R [4]: 1.4 g | KIDNEY_TOTAL [4]: 2.8 g | LIVER [2]: 12 g | LIVER [3]: 14.6 g | LIVER [4]: 15.8 g | ALP [2]: 1763.8 IU/L | ALT [2]: 42 IU/L | AST [2]: 69.6 IU/L | CRE [2]: 0.2 mg/dL | DBIL [2]: 0 mg/dL | GLC [2]: 202.8 mg/dL | IP [2]: 7.2 mg/dL | K [2]: 4.4 meq/L | LDH [2]: 184 IU/L | Na [2]: 141.8 meq/L | PL [2]: 157 mg/dL | RALB [2]: 3 g/dL | TBIL [2]: 0.004 mg/dL | TC [2]: 80.4 mg/dL | TG [2]: 106.8 mg/dL | TP [2]: 5.5 g/dL | gamma-GTP [2]: 1.6 IU/L | ALP [3]: 1603.8 IU/L | ALT [3]: 36.8 IU/L | AST [3]: 65.6 IU/L | CRE [3]: 0.2 mg/dL | DBIL [3]: 0 mg/dL | GLC [3]: 188.2 mg/dL | IP [3]: 7.2 mg/dL | K [3]: 4.2 meq/L | LDH [3]: 186.6 IU/L | Na [3]: 142.2 meq/L | PL [3]: 158 mg/dL | RALB [3]: 3.1 g/dL | TBIL [3]: 0.004 mg/dL | TC [3]: 74.4 mg/dL | TG [3]: 139.8 mg/dL | TP [3]: 5.8 g/dL | gamma-GTP [3]: 3 IU/L | ALP [4]: 1301.4 IU/L | ALT [4]: 41.8 IU/L | AST [4]: 63.8 IU/L | CRE [4]: 0.2 mg/dL | DBIL [4]: 0 mg/dL | GLC [4]: 200.4 mg/dL | IP [4]: 6.4 mg/dL | K [4]: 4 meq/L | LDH [4]: 141.6 IU/L | Na [4]: 141.8 meq/L | PL [4]: 144.2 mg/dL | RALB [4]: 3 g/dL | TBIL [4]: 0 mg/dL | TC [4]: 71 mg/dL | TG [4]: 118.2 mg/dL | TP [4]: 5.9 g/dL | gamma-GTP [4]: 3.4 IU/L | TERMINAL_BW [5]: 235.6 g | APTT [5]: 23.6 s | Bas [5]: 0% | Eos [5]: 1% | Fbg [5]: 344.8 mg/dL | Hb [5]: 13.5 g/dL | Ht [5]: 41% | Lym [5]: 77% | MCHC [5]: 32.8% | MCV [5]: 63 fL | Mono [5]: 2.8% | Neu [5]: 19% | PT [5]: 16.3 s | Plat [5]: 115.1 x10_4/uL | RBC [5]: 651.2 x10_4/ul | Ret [5]: 6.3% | WBC [5]: 91.5 x10_2/uL | KIDNEY_L [5]: 1 g | KIDNEY_R [5]: 1 g | KIDNEY_TOTAL [5]: 2.1 g | LIVER [5]: 11.7 g | ALP [5]: 1493.6 IU/L | ALT [5]: 45.6 IU/L | AST [5]: 72.4 IU/L | CRE [5]: 0.2 mg/dL | DBIL [5]: 0 mg/dL | GLC [5]: 187.2 mg/dL | IP [5]: 7 mg/dL | K [5]: 4.3 meq/L | LDH [5]: 168.2 IU/L | Na [5]: 143 meq/L | PL [5]: 131.2 mg/dL | RALB [5]: 3.1 g/dL | TBIL [5]: 0 mg/dL | TC [5]: 55.2 mg/dL | TG [5]: 161.4 mg/dL | TP [5]: 5.7 g/dL | gamma-GTP [5]: 1.8 IU/L | TERMINAL_BW [6]: 261.4 g | TERMINAL_BW [7]: 310 g | TERMINAL_BW [8]: 405.6 g | APTT [6]: 25 s | Bas [6]: 0% | Eos [6]: 0.4% | Fbg [6]: 318 mg/dL | Hb [6]: 13.7 g/dL | Ht [6]: 40.4% | Lym [6]: 84% | MCHC [6]: 33.9% | MCV [6]: 60.1 fL | Mono [6]: 2% | Neu [6]: 13% | PT [6]: 15.7 s | Plat [6]: 117.6 x10_4/uL | RBC [6]: 672.6 x10_4/ul | Ret [6]: 5.1% | WBC [6]: 112.4 x10_2/uL | APTT [7]: 26.6 s | Bas [7]: 0% | Eos [7]: 0.8% | Fbg [7]: 354.4 mg/dL | Hb [7]: 14.5 g/dL | Ht [7]: 41.1% | Lym [7]: 84.8% | MCHC [7]: 35.2% | MCV [7]: 60.3 fL | Mono [7]: 1.8% | Neu [7]: 12% | PT [7]: 16.2 s | Plat [7]: 134.9 x10_4/uL | RBC [7]: 681.2 x10_4/ul | Ret [7]: 3.3% | APTT [8]: 26.9 s | Bas [8]: 0% | Eos [8]: 1% | Fbg [8]: 326.6 mg/dL | Hb [8]: 14.5 g/dL | Ht [8]: 42.4% | Lym [8]: 78.8% | MCHC [8]: 34.2% | MCV [8]: 56.1 fL | Mono [8]: 1.6% | Neu [8]: 17.6% | PT [8]: 17.1 s | Plat [8]: 109.1 x10_4/uL | RBC [8]: 756.2 x10_4/ul | Ret [8]: 2.4% | WBC [8]: 85.7 x10_2/uL | KIDNEY_L [6]: 1.1 g | KIDNEY_R [6]: 1.1 g | KIDNEY_TOTAL [6]: 2.2 g | KIDNEY_L [7]: 1.3 g | KIDNEY_R [7]: 1.3 g | KIDNEY_TOTAL [7]: 2.6 g | KIDNEY_L [8]: 1.5 g | KIDNEY_R [8]: 1.5 g | KIDNEY_TOTAL [8]: 2.9 g | LIVER [6]: 12.7 g | LIVER [7]: 14.9 g | LIVER [8]: 18.3 g | ALP [6]: 1505.8 IU/L | ALT [6]: 39.6 IU/L | AST [6]: 65 IU/L | CRE [6]: 0.2 mg/dL | DBIL [6]: 0 mg/dL | GLC [6]: 181.8 mg/dL | IP [6]: 6.2 mg/dL | K [6]: 4.4 meq/L | LDH [6]: 139.6 IU/L | Na [6]: 143.2 meq/L | PL [6]: 128.4 mg/dL | RALB [6]: 3 g/dL | TBIL [6]: 0.002 mg/dL | TC [6]: 51.8 mg/dL | TG [6]: 140.4 mg/dL | TP [6]: 5.6 g/dL | gamma-GTP [6]: 2.2 IU/L | ALP [7]: 1681.6 IU/L | ALT [7]: 38.4 IU/L | AST [7]: 57.4 IU/L | CRE [7]: 0.2 mg/dL | DBIL [7]: 0 mg/dL | GLC [7]: 182.8 mg/dL | IP [7]: 6.8 mg/dL | K [7]: 4.1 meq/L | LDH [7]: 154 IU/L | Na [7]: 143.6 meq/L | PL [7]: 132.8 mg/dL | RALB [7]: 3.1 g/dL | TBIL [7]: 0 mg/dL | TC [7]: 49 mg/dL | TG [7]: 177.6 mg/dL | TP [7]: 6 g/dL | gamma-GTP [7]: 2.6 IU/L | ALP [8]: 1348.8 IU/L | ALT [8]: 39.8 IU/L | AST [8]: 59.2 IU/L | CRE [8]: 0.2 mg/dL | DBIL [8]: 0 mg/dL | GLC [8]: 191.4 mg/dL | IP [8]: 6.1 mg/dL | K [8]: 3.9 meq/L | LDH [8]: 121.8 IU/L | Na [8]: 142.8 meq/L | PL [8]: 142.4 mg/dL | RALB [8]: 3 g/dL | TBIL [8]: 0 mg/dL | TC [8]: 46.6 mg/dL | TG [8]: 334.4 mg/dL | TP [8]: 6.2 g/dL | gamma-GTP [8]: 3.2 IU/L
